{"source": "patent US20040062764A1", "about": "“Chemoprotectant for gastric toxicity” (priority 2003, published 2004)", "key": {"[1]": {"test_system": "GSH", "test": "Blood and tissue GSH levels, colorometric kit", "format": "in vivo, nude rats", "settings": "BSO 10 g/m^2 i.p. b.i.d. x 3 days; even in brain and intracerebral tumor", "protocol": "(§1) NAC biodistribution was determined with radiolabelled tracer (n=12). Blood and tissue GSH levels were measured with a colorometric kit 9 (n=19). For bone marrow toxicity studies, rats were treated with or without BSO (10 g/m^2 i.p. b.i.d.×3 days), followed by chemotherapy consisting of intra-carotid carboplatin (200 mg/m^2), melphalan (10 mg/m^2) and etoposide phosphate (100 mg/m^2) (n=61). The dose of NAC was 1200 mg/m^2 and STS was 8 gm/m^2. White blood cell and platelet counts were obtained prior to, at 6 days and 9-10 days after chemotherapy."}, "[2]": {"test_system": "normal human gastric cells (NHGC)", "settings": "for percent viable gastric cells, BR96-DOX plus chemoprotectant (FIGS. 3 and 4): with or without BSO pretreatment", "protocol": "Cytotoxicity was assessed in cultured normal human gastric cells (NHGC), using the WST colorometric assay for live cells. Cells were treated with approximately LD90 dose of BR96-DOX, immediately followed by NAC at the indicated concentrations.\n(§2) A NHGC cell line and a human gastric carcinoma cell line (AGS) were obtained."}, "[3]": {"test_system": "low-expressor and high-expressor subclones of the LX-1 SCLC cell line", "test": "BSO cytoenhancement in LX-1 SCLC subclones", "format": "cell-based, human", "settings": "low- and high-expressor LX-1 subclones"}, "[4]": {"test_system": "human gastric carcinoma cell line (AGS)", "test": "Cytotoxicity dose response in gastric carcinoma cells", "settings": "for cell survival, comparison of combinations (FIGS. 5 and 6): NAC+BSO+BR96-DOX versus BR96-DOX+BSO without NAC; for EC50: Homo sapiens, AGS", "protocol": "as §2\nThe dose response curves for BR96-DOX and doxorubicin with or without the addition of buthionine sulfoximine (BSO) at a concentration of 100 μM were assessed."}, "[5]": {"test_system": "bone marrow", "test": "Bone marrow toxicity study after intra-carotid combination chemotherapy", "protocol": "as §1"}, "[6]": {"settings": "after a bolus injection; cited from earlier work"}, "[7]": {"test_system": "B.5 LX-1 SCLC cells", "test": "WST colorometric live-cell assay, NAC chemoprotection against alkylating chemotherapy", "format": "cell-based", "settings": "Homo sapiens; approx. LD90 chemotherapy (melphalan 20 μM, carboplatin 200 μM, cisplatin 20 μM); NAC added immediately after; all three drugs; read-out: NAC concentration for half-maximal protection against cell death", "protocol": "Cytotoxicity was assessed in cultured B.5 LX-1 SCLC cells, using the WST colorometric assay for live cells. Cells were treated with approximately LD90 dose of chemotherapy (melphalan=20 μM, carboplatin=200 μM, cisplatin=20 μM). Immediately following chemotherapy, NAC chemoprotectant was added at the indicated concentration. NAC protected against cell death by all three chemotherapeutic drugs, with half-maximal protection found between 0.1 mg/ml NAC and 0.3 mg/ml NAC."}, "[8]": {"test": "NAC biodistribution with radiolabelled tracer", "format": "in vivo, rat", "protocol": "as §1"}}, "note": "Entries after “also recorded” stand apart in the source; their conditions may differ. Read-outs that look alike come from different tables or passages of the source.", "data": [{"molecule": "CCCCS(=N)(=O)CCC(N)C(=O)O", "note": "(stereo not shown) [BSO, buthionine sulfoximine]", "values": [{"measurement": "reduction of blood and tissue GSH levels", "setting": "[1]", "value": "50-65%"}, {"measurement": "effect of BSO on cytotoxicity of BR96-DOX or doxorubicin in normal gastric cells", "setting": "[2]; NHGC", "value": "did not increase toxicity; also recorded: did not enhance the cytotoxicity"}, {"measurement": "effect of BSO on cytotoxicity of BR96-DOX or doxorubicin", "setting": "[3]", "value": "did not enhance the cytotoxicity"}, {"measurement": "effect of BSO on cytotoxicity in carcinoma cells", "setting": "[4]", "value": "enhanced cytotoxicity"}, {"measurement": "cell survival, comparison of combinations (FIGS. 5 and 6)", "setting": "[4]", "value": "least survival"}, {"measurement": "bone marrow toxicity of combination chemotherapy", "setting": "[5]; BSO pretreatment, intra-carotid carboplatin, melphalan, etoposide phosphate", "value": "enhanced the bone marrow toxicity"}]}, {"molecule": "CSCC[C@@H](N)C(=O)O", "note": "[d-Methionine, D-methionine]", "values": [{"measurement": "reduction of BR96-DOX cell kill, other chemoprotective agents", "setting": "[2]; NHGC", "value": "no significant effect"}]}, {"molecule": "COc1cccc2c1C(=O)c1c(O)c3c(c(O)c1C2=O)C[C@@](O)(C(=O)CO)C[C@@H]3O[C@H]1C[C@H](N)[C@H](O)[C@H](C)O1", "note": "[doxorubicin]", "values": [{"measurement": "EC50", "setting": "[4]; read-out: half maximal cytotoxic dose (EC50), AGS cells, absence of BSO", "value": 0.1, "unit": "µg/mL"}, {"measurement": "EC50", "setting": "[4]; read-out: half maximal cytotoxic dose (EC50), AGS cells, pretreatment with BSO 100 μM", "value": "~0.05", "unit": "µg/mL"}]}, {"molecule": "O=S([O-])([O-])=S.[Na+].[Na+]", "note": "[STS, sodium thiosulfate]", "values": [{"measurement": "plasma half life", "setting": "[6]", "value": "about 17 minutes"}, {"measurement": "reduction of BR96-DOX cell kill, other chemoprotective agents", "setting": "[2]; NHGC", "value": "no significant effect"}]}, {"molecule": "CCOC(=O)CNC(=O)[C@H](CS)NC(=O)CC[C@H](N)C(=O)O", "note": "[GSH ethyl ester]", "values": [{"measurement": "reduction of BR96-DOX cell kill, other chemoprotective agents", "setting": "[2]; NHGC", "value": "15-20%"}, {"measurement": "percent viable gastric cells, BR96-DOX plus chemoprotectant (FIGS. 3 and 4)", "setting": "[2]", "value": "second highest amount of viable gastric cells"}]}, {"molecule": "CC(=O)N[C@@H](CS)C(=O)O", "note": "[NAC, N-acetylcysteine]", "values": [{"measurement": "EC50", "setting": "[7]", "value": "100 to 300", "unit": "µg/mL"}, {"measurement": "protection against BR96-DOX cytotoxicity in normal gastric cells", "setting": "[2]; NHGC", "value": "protected the normal gastric cells; also recorded: at least partially protective; also recorded: protective independent of the presence of BSO"}, {"measurement": "reduction of BR96-DOX cell kill", "setting": "[2]; NHGC, experiment 1", "value": 25, "unit": "%"}, {"measurement": "reduction of BR96-DOX cell kill", "setting": "[2]; NHGC, experiment 2", "value": 95, "unit": "%"}, {"measurement": "reduction of BR96-DOX cell kill", "setting": "[2]; NHGC, experiment 3", "value": 55, "unit": "%"}, {"measurement": "protective NAC concentration relative to that required against alkylating chemotherapeutics", "setting": "[2]; NHGC/BR96-DOX vs B.5 LX-1/alkylators", "value": 10, "unit": "fold"}, {"measurement": "percent viable gastric cells, BR96-DOX plus chemoprotectant (FIGS. 3 and 4)", "setting": "[2]", "value": "increased the percentage of viable gastric cells"}, {"measurement": "systemic delivery of radiolabelled NAC", "setting": "[8]; aortic infusion", "value": "increasing systemic delivery"}, {"measurement": "brain delivery of radiolabelled NAC", "setting": "[8]; aortic infusion (retrograde left external carotid, left internal carotid occluded)", "value": "negligible levels"}, {"measurement": "brain delivery of radiolabelled NAC", "setting": "[8]; intraarterial, right carotid artery", "value": "high delivery to the right cerebral hemisphere"}, {"measurement": "effect on BSO-enhanced BR96-DOX cytotoxicity", "setting": "[4]", "value": "did reverse the enhanced cytotoxicity"}, {"measurement": "effect on response to BR96-DOX", "setting": "[4]; AGS cells not treated with BSO", "value": "did not alter the response"}, {"measurement": "cell survival, comparison of combinations (FIGS. 5 and 6)", "setting": "[4]", "value": "greatest amount of cells survived"}, {"measurement": "granulocytes at nadir", "setting": "[5]; day 6, NAC 1200 mg/m^2 aortic infusion before intra-carotid chemotherapy, no BSO, no NAC: 146±160, p<0.02", "value": "785±494"}, {"measurement": "platelets at nadir", "setting": "[5]; day 6, NAC 1200 mg/m^2 aortic infusion before intra-carotid chemotherapy, no BSO, no NAC: 215±126, p<0.02", "value": "470±234"}]}]}
